Experimental data from EP1056460B1, “PHARMACEUTICAL PREPARATIONS FOR SELECTIVELY SUPPLEMENTING OESTROGEN DEFICIENCY IN THE CENTRAL NERVOUS SYSTEM” (priority 1998, dated 1999).

How the values were obtained:
Endometriums = test: Computer-aided measurement of endometrium thickness in uterus preparations; type: in vivo, Ratten; settings: ovariectomised rats, 1 µg daily s.c. for 7 days
[1] = Serum concentration of 17b-Estradiol after 7 days of subcutaneous treatment (biotransformation); type: in vivo, Ratten; settings: ovariectomised rats, daily s.c. for 7 days: 17a-Estradiol 100 µg, prototype 30 µg, 17b-Estradiol 1 µg; placebo below detection limit
From the text: Sternzeichen bezeichnen signifikante Differenzen im Vergleich zu den Werten, die bei Placebo-behandelten Tieren gemessen wurden; die Letzteren waren unterhalb der Nachweisgrenze der Methode; jede Behandlungsgruppe bestand aus 7 Tieren.

Uterus [2] = test: Uterus weight after 14 days of daily subcutaneous treatment (cognition experiment); type: in vivo, Wistar-Ratten; settings: for Uterusgewichte (x ± SEM): after 14 days of daily s.c. treatment: 17b-Estradiol 1 µg, 17a-Estradiol 100 µg, prototype 30 µg, n = 8-10, OVX 53 ± 2
From the text: (§1) Eine Korrelation zwischen Serum-Estrogenspiegel und kognitiver Leistung wurde auch im Tierversuchsmodell nachgewiesen (Kondo Y, Suzuki K, Sakuma Y, Estrogen aleviates cognitive dysfunction following transient brain ischemia in ovariectomized gerbils, Neurosci Lett 238: 45-48, 1997). […] Die gesamte Behandlungsdauer war 14 Tage. Am 5. und 6. Behandlungstag wurden Trainingssitzungen zum Erlernen eines konditionierten Escape-Verhaltens nach einer etablierten Methode (Diaz-Veliz G et al., Influence of the estrous cycle, ovariectomy and estradiol replacement upon the acquisition of conditioned avoidance responses in rats, Physiol Behav 46: 397-401, 1989) durchgeführt. Jedes Tier wurde in einer Sitzung 50 Mal der Kombination aus einem unbedingten (elektrische Reizung) und zwei konditionierenden Stimuli (Licht- und Schall-Signal) exponiert. Am 7. Behandlungstag wurde die Retention des erlernten Verhaltensmusters getestet. Nach einer 6-tägigen Unterbrechung der Lernsitzungen, wurde am 14. Behandlungstag die Extinktion des erlernten konditionierten Verhaltens ermittelt. Die Anzahl der korrekten Verhaltensreaktionen (Escape in das "sichere" Abteil des Apparats innerhalb von drei Sekunden nach Präsentation der konditionierenden Signale) aus 50 aufeinanderfolgenden Expositionen wurde als Kriterium für die Bewertung der Retention bzw. Extinktion des erlernten Verhaltens verwendet.

kognitive Leistung = test: Conditioned escape behaviour (retention and extinction) in ovariectomised rats after chronic treatment; type: in vivo, Wistar-Ratten; settings: 30 µg daily s.c., retention tested on day 7
From the text: as §1

bcl-2 = bcl-2 transcripts in the dentate gyrus of the hippocampus by in-situ hybridisation after chronic treatment in vivo; set-up: species or system Wistar-Ratten; settings: ovariectomised rats, 0,01, 0,1 and 1 µg daily s.c. for 7 days; effect of the prototype identical to equal doses of 17b-Estradiol
From the text: Das Untersuchungsmaterial stammte von Tieren, die im unter Beispiel 3 beschriebenen Experiment behandelt wurden. […] Bcl-2-Transkripte wurden in Hirnschnitten durch in-situ-Hybridisierung mit einer spezifischen Oligonukleotid-Sonde (Clark RSB et al., Apoptosis-suppressor gene bcl-2 expression after traumatic brain injury in rats, J Neurosci 17: 9172-9182, 1997) dargestellt, und nach der im Beispiel 3 beschriebenen Methode densitometrisch quantifiziert.

[3] = test system: Alpha-Isoform des Estrogenrezeptors (ERa); test: Activation of transcription of an ERa-dependent luciferase reporter gene in MCF-7/2A cells; type: cell-based; settings: EREwtcLUC reporter, 10^-11 to 10^-8 M, 48 h, fold lower than 17b-Estradiol
From the text: Brustkrebszellen MCF-7/2A, die die Alpha-Isoform des Estrogenrezeptors (ERa) exprimieren, wurden mit dem Reporter-Plasmid EREwtcLUC stabil transfiziert. Der Reporter enthält den Estrogen-Response Element (ERE) von Vitellogenin, einen Thymidinkinase-Promotor und das Luciferase-codierende Gen von Photinus pyralis. […] Die Zellen wurden lysiert und die Transkription des Luciferase-Reportergens wurde durch Bestimmung der Luciferase-Aktivität mit einem spezifischen Testansatz (Serva/Promega, Deutschland) ermittelt.
Die Figur stellt die Mittelwerte von zwei unabhängigen Versuchen dar.

Oxytocin-Gens = test: Oxytocin mRNA in the hypothalamic paraventricular nucleus by in-situ hybridisation after chronic treatment in vivo; set-up: species or system Wistar-Ratten; settings: ovariectomised rats, 0,01, 0,1 and 1 µg daily s.c. for 7 days; effect of the prototype very similar to 17b-Estradiol
From the text: Geschlechtsreife (drei Monate alt, Gewicht 250±30 g) weibliche Wistar-Ratten (Tierzucht Schönwalde GmbH, Deutschland) wurden unter Ketamin-Narkose ovarektomiert. […] Unmittelbar nach der Tötung der Tiere, wurden die Uterus-Feuchtgewichte (bezogen auf 100 g Körpergewicht) ermittelt. […] Behandlungsbedingte Veränderungen in der Transkription des Oxytocin-Gens wurden durch densitometrische Messungen der spezifischen Hybridisierungssignale innerhalb der definierten anatomischen Stukturen quantifiziert.
(§2) Jeder Punkt stellt x ± SEM von 5-7 Einzelbestimmungen.

Oxytozin-Rezeptoren = test: Density of oxytocin receptors in brain and myometrium by 125I-OVTA autoradiography after 7 days of treatment; type: in vivo, Ratten; settings: 1 µg daily s.c. for 7 days
From the text: Jede Säule repräsentiert x ± SEM von 4-5 Einzelbestimmungen.

Uterus [4] = test: Uterus wet weight after chronic subcutaneous application (osmotic minipumps, 7 days) in ovariectomised rats; type: in vivo, Wistar-Ratten
From the text: Geschlechtsreife (drei Monate alt, Gewicht 250±30 g) weibliche Wistar-Ratten (Tierzucht Schönwalde GmbH, Deutschland) wurden unter Ketamin-Narkose ovarektomiert. […] Am 7. Behandlungstag wurden die Tiere getötet und die Uterus-Feuchtgewichte (bezogen auf 100 g Körpergewicht) ermittelt.
Geschlechtsreife (drei Monate alt, Gewicht 250±30 g) weibliche Wistar-Ratten (Tierzucht Schönwalde GmbH, Deutschland) wurden unter Ketamin-Narkose ovarektomiert. […] Unmittelbar nach der Tötung der Tiere, wurden die Uterus-Feuchtgewichte (bezogen auf 100 g Körpergewicht) ermittelt. Die Messenger-Ribonukleinsäure (mRNA), die die Biosynthese von Oxytozin codiert, wurde durch in-situ-Hybridisierung mit einer spezifischen radioaktiv-markierten Oligodeoxynukleotid-Sonde nach einer etablierten Methode (Fischer D et al, Lactation as a model of naturally reversible hypercorticalism: plasticity in the mechanism governing hypothalamo-pituitary-adrenal activity in the rat, J Clin Invest 96: 1208-1215, 1995), 1995) im hypothalamischen Nucleus paraventricularis (PVN) dargestellt. Behandlungsbedingte Veränderungen in der Transkription des Oxytocin-Gens wurden durch densitometrische Messungen der spezifischen Hybridisierungssignale innerhalb der definierten anatomischen Stukturen quantifiziert.
as §2

| Compound | Stärke des Endometriums (endometriale Proliferation) (Endometriums) | Serumkonzentrationen von 17b-Estradiol [1] | Uterusgewichte (x ± SEM) (Uterus [2]) [mg/100g KG] | Retention des erlernten Verhaltensmusters (kognitive Leistung) | Expression von bcl-2 im Gyrus dentatus (bcl-2) | Effizienz (Transkription des Reporters), geringer als diese von 17b-Estradiol [3] | uterotrope Wirkung im Vergleich mit 17b-Estradiol in einer täglichen Dosis von 1 µg (Uterus [2]; prototype 30 µg daily s.c., 14 days) | Transkription des Oxytozin-Gens im PVN (Oxytocin-Gens) | Dichte von Oxytozin-Rezeptoren in allen untersuchten Hirnstrukturen (Oxytozin-Rezeptoren; VMN and BNST, ovariectomised rats, 50 pM 125I-OVTA) | Dichte von Oxytozin-Rezeptoren im VMN im Vergleich mit 17b-Estradiol (Oxytozin-Rezeptoren; VMN) | Induktion von Oxytozin-Bindungsstellen im Myometrium (Oxytozin-Rezeptoren; ovariectomised rats) | Wirksamkeit im weiblichen Genitaltrakt im Vergleich mit 17a-Estradiol (Uterus [4]; comparison in words) | Wirksamkeit im weiblichen Genitaltrakt, geringer als diese von 17b-Estradiol (Uterus [4]; fold lower than 17b-Estradiol, from uterotropic daily doses) | Uterus-Vergrößerung (Uterus [4]; ovariectomised rats, 0,01, 0,1 and 1 µg daily s.c. for 7 days (Example 3)) | Tagesdosen für signifikante Vergrößerung des Uterus (uterotroper Effekt) (Uterus [4]; ovariectomised rats, s.c. osmotic minipumps, 7 days, uterus wet weight per 100 g body weight) [µg] |
| --- | --- | --- | --- | --- | --- | --- | --- | --- | --- | --- | --- | --- | --- | --- | --- |
| C[C@]12CC[C@@H]3c4ccc(O)cc4CC[C@H]3[C@@H]1CC[C@@H]2O [17b-Estradiol] | signifikante endometriale Proliferation | meßbare Konzentrationen | 187 ± 9 |  |  |  |  |  |  |  |  |  |  |  |  |
| C[C@]12CCC3=C(CCc4cc(O)ccc43)[C@@]13C[C@H]3C[C@H]2O [15βH,3'H-Cycloprop[14,15]-estra-1,3,5(10),8-tetraen-3,17α-diol] | nicht beeinflussen | keinen Anstieg | 108 ± 4 | estrogen-ähnlichen stimulierenden Effekt | dosisabhängigen Stimulation | 10 -fach | signifikant geringer | dosisabhängig stimuliert | signifikanten Anstieg | schwächeren Effekt als 17b-Estradiol | signifikant geringere Wirkung | vergleichbar mit derjenigen von 17a-Estradiol | ~1000 -fach | keiner Uterus-Vergrößerung | 30 |
| C[C@]12CC[C@@H]3c4ccc(O)cc4CC[C@H]3[C@@H]1CC[C@H]2O [17a-Estradiol] | nicht beeinflussen | meßbare Konzentrationen |  |  |  |  |  |  |  |  | signifikant geringere Wirkung |  |  |  |  |
